Patent publication US10000469B2, “Heat shock protein 70 (hsp-70) receptor ligands” (Duke University, priority 2014, dated 2018)
Entries after “also recorded” stand apart in the source; their conditions may differ.

Columns and labels:
[1] = tested on: MCF10A; assay: Cell proliferation, MCF10A; format: cell-based; settings: non tumorigenic MCF10A
Method: Cell Proliferation: Cell proliferation was determined using a Hoechst stain (Sigma, St. Louis, Mo.) to quantify DNA. 5,000 cells of the designated cell line were plated in 96 well plates and treated the next day, designated as time point 0, with the indicated concentration of the specified compound maintained for the duration of the assay. At the indicated time points the media was removed and plated frozen at −80° C. Double distilled H2O was then added and the plates were incubated at 37° C. for 1 hour. After 1 hour the plates were frozen at −80° C. After freezing the plates were thawed and Hoechst stain was diluted 1:1000 in THE buffer (10 mM Tris, 2M NaCl, 1 mM Na2EDTA). The final fluorescence was measured on the Victor X2 plate reader at 355/460 nm, and cell proliferation was determined with the formula: % Cell Proliferation=100×(Sample fluorescence−background fluorescence)/(Control fluorescence−background fluorescence).

[2] = target: T1, GFP-Hsp70i (Homo sapiens, UniProt P0DMV8); assay: FLECS elution of GFP-Hsp70i from γ-phosphate-linked ATP resin; format: binding; settings: compared with HS-71
T1 construct: host or cells: HEK 293T
Method: FLECS Screen: A pEGFP-tagged Hsp70i was (plasmid 15215, Addgene, Cambridge, Mass.) used in the FLECS assay and was originally cloned according to [Zeng et al. (2004). Hsp70 dynamics in vivo: effect of heat shock and protein aggregation. Journal of cell science 117, 4991-5000]. ATP used in the assay was purchased from Sigma (St. Louis, Mo.) and a 200 mM stock was prepared with low salt buffer (150 mM NaCl, 25 mM Tris, pH 7.5, 60 mM MgCl2). The γ-phosphate ATP sepharose was synthesized as previously described and stored in low salt buffer [Haystead et al. (1993). Gamma-phosphate-linked ATP-sepharose for the affinity purification of protein kinases. Rapid purification to homogeneity of skeletal muscle mitogen-activated protein kinase kinase. European journal of biochemistry/FEBS 214, 459-467]. FuGENE 6 transfection reagent (Roche, Mannheim, Germany) was used for transfection of GFP-Hsp70i into HEK 293T cells, following the manufacturer protocol. The transfection ensued for 48 hours, upon which time the cells were harvested and lysed in cell lysis buffer (150 mM NaCl, 50 mM Tris, pH 7.5, 1% Triton X-100, 1 mM EDTA, 1 mM DTT, and 1 tablet Complete Mini protease inhibitor (Roche)). Cell lysates were stored at −80° C. until further use. Upon binding the resin lysates were washed 3× with high stringency wash buffer (1 M NaCl, 25 mM Tris, pH 7.5, 60 mM MgCl2, 1 mM DTT) and 3× with low stringency wash buffer (150 mM NaCl, 25 mM Tris, pH 7.5, 60 mM MgCl2, 1 mM DTT). […]
Assembly of a focused library, consisting of 3379 purine like compounds, was described previously [Carlson et al. (2013). Fluorescence Linked Enzyme Chemoproteomic Strategy for Discovery of a Potent and Selective DAPK1 and ZIPK Inhibitor. […] The lysates were eluted from the filter plate onto a catch plate by centrifugation and the fluorescence of the eluates was measured. […] Next, the presence of GFP-Hsp70i in the eluates from the 197 primary hits was determined by Western blot. […]

T1 sequence (P0DMV8 whole entry): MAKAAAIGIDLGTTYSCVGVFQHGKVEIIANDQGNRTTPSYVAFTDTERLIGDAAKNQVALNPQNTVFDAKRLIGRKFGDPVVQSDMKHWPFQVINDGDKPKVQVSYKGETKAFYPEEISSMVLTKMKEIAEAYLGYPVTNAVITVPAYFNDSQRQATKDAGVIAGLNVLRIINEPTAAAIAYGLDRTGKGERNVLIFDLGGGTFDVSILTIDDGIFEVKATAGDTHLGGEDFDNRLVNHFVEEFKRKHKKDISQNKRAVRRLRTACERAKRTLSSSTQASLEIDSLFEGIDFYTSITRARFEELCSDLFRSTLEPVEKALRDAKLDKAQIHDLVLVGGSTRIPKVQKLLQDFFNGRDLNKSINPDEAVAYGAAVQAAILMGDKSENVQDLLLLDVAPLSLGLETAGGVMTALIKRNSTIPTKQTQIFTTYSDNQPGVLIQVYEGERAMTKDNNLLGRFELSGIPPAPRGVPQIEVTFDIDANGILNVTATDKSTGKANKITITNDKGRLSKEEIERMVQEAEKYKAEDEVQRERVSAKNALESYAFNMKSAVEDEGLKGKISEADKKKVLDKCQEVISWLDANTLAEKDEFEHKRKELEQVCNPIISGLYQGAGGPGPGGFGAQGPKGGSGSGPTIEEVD

For `CCCn1c(NC(=O)[C@H]2CCCN(c3cnccn3)C2)nc2ccccc21` [HS-72, (S)—N-(1-propyl-1H-benzo[d]imidazol-2-yl)-1-(pyrazin-2-yl)piperidine-3-carboxamide], the cell proliferation [1] was “insensitive; also recorded: continue to grow at all concentrations” and the “elution of GFP-Hsp70 from the ATP resin, S vs. R enantiomer” value [2] was “more effective”.
